Results on 1 compound are retold here after article PMC7486443, “Generation of Phenothiazine with Potent Anti-TLK1 Activity for Prostate Cancer Therapy” (iScience, 2020).

Some targets named below: CLK4 (Homo sapiens, UniProt Q9HAZ1); MARK4 (Homo sapiens, UniProt Q96L34); PRKD1 (Homo sapiens, UniProt Q15139); MAK (Homo sapiens, UniProt P20794); ACVR1B (Homo sapiens, UniProt P36896); CAMKK1 (Homo sapiens, UniProt Q8N5S9); MAP4K4 (Homo sapiens, UniProt O95819); HCK (Homo sapiens, UniProt P08631); KIT(D816H) (Homo sapiens, UniProt P10721, D816H); TAOK1 (Homo sapiens, UniProt Q7L7X3); ANKK1 (Homo sapiens, UniProt Q8NFD2); SNRK (Homo sapiens, UniProt Q9NRH2); SIK2 (Homo sapiens, UniProt Q9H0K1); CDKL1 (Homo sapiens, UniProt Q00532); PIM2 (Homo sapiens, UniProt Q9P1W9).

Common to all, as to experiment: biochemical
Design in all cases: DiscoverX KINOMEscan scanMAX competition binding panel, single concentration, percent of control; remaining binding: dose or concentration left out as unconfirmed
What all share (conditions): KINOMEscan binding, percent of control; read-out: Table S4_SCANMAX REPORT - related to Fig. 1 / Percent Control

The next experiment has as its target T1, ERK3 (Homo sapiens, UniProt Q16659).
T1 construct: gene MAPK6

The target of the next experiment is T2, PIP5K2C (Homo sapiens, UniProt Q8TBX8).
T2 construct: gene PIP4K2C
T2 sequence (Q8TBX8 whole entry): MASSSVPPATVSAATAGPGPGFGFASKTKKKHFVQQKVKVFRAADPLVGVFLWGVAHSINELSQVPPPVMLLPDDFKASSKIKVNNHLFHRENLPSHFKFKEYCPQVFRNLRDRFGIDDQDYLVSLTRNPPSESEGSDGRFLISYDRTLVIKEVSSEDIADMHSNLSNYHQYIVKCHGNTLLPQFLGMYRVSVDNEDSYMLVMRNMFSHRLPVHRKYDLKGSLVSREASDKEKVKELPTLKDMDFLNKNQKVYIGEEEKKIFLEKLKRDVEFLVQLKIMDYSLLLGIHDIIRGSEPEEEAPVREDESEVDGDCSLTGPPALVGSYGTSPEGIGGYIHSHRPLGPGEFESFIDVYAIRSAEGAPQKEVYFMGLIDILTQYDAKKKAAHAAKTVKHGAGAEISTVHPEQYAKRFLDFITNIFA

Experiment [1] addresses T3, ABL1(H396P)-nonphosphorylated (Homo sapiens, UniProt P00519, H396P).
T3 construct: nonphosphorylated

The next experiment addresses T4, ERK4 (Homo sapiens, UniProt P31152).
T4 construct: gene MAPK4

Sequence of SIK2 (Q9H0K1 whole entry): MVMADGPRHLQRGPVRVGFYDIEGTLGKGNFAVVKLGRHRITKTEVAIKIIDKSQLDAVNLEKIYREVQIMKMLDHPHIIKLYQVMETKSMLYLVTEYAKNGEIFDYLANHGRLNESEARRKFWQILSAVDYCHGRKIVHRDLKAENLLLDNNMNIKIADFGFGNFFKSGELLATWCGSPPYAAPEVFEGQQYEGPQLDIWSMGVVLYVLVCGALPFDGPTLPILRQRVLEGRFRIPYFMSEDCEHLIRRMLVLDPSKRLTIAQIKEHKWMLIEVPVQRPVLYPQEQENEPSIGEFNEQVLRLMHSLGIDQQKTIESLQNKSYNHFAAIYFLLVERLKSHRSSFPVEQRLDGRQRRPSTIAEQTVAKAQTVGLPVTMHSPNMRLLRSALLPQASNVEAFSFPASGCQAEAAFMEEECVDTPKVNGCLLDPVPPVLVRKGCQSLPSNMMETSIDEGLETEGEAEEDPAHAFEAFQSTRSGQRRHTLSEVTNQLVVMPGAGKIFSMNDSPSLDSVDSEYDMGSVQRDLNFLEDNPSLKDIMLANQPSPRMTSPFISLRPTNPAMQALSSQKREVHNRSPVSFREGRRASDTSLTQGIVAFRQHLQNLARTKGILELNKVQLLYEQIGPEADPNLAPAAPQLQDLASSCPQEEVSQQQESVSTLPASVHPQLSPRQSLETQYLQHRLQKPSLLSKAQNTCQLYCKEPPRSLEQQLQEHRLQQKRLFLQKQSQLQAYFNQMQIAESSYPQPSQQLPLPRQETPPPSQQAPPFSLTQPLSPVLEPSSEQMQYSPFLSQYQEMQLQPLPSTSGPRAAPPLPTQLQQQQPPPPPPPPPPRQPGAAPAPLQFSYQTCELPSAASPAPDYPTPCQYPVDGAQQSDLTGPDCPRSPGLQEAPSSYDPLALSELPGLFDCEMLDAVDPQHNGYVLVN
T4 sequence (P31152 whole entry): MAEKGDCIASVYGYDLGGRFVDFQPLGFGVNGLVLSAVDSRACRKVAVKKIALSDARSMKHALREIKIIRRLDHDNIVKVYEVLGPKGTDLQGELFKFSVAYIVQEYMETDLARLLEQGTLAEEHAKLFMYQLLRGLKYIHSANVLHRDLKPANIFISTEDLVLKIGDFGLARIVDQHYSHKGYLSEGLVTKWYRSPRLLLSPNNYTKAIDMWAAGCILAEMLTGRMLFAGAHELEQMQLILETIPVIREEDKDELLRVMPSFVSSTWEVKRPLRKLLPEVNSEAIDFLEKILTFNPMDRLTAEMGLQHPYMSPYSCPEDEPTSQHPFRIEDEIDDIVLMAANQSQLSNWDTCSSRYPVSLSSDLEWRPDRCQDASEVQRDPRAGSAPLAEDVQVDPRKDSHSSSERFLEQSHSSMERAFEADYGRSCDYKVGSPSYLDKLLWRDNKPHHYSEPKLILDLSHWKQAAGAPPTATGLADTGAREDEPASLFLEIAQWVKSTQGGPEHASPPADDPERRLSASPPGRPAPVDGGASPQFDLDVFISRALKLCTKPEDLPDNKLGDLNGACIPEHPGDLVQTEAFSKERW
Sequence of ACVR1B (P36896 whole entry): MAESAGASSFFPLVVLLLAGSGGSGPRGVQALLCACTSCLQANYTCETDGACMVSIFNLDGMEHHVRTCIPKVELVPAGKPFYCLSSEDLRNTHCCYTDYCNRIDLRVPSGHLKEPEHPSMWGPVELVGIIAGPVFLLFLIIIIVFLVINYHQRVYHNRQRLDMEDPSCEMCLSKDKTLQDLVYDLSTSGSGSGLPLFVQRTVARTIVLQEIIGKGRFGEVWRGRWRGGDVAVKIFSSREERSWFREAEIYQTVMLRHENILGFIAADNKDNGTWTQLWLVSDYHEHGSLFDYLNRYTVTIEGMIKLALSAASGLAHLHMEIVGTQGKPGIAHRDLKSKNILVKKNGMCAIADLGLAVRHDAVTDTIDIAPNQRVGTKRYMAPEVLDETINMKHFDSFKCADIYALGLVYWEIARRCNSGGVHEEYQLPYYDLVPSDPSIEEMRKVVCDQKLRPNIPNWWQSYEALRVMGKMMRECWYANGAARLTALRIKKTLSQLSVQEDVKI
Sequence of MAK (P20794 whole entry): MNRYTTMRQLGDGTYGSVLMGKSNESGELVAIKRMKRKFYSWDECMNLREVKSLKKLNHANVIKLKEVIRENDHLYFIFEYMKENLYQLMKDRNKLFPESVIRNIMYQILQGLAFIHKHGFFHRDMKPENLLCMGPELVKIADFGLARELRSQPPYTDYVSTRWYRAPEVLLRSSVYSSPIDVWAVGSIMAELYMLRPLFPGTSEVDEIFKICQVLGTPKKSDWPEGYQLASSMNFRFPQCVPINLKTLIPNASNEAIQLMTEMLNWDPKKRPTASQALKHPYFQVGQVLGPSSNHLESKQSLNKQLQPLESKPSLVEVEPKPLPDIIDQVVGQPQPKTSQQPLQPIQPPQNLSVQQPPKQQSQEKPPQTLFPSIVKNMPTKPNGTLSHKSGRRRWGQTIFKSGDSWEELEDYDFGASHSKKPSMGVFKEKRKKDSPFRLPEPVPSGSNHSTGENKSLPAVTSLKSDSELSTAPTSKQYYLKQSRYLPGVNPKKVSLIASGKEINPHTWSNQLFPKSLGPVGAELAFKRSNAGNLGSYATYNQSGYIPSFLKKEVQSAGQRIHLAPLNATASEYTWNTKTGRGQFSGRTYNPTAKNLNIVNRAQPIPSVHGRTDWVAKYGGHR
Sequence of ANKK1 (Q8NFD2 whole entry): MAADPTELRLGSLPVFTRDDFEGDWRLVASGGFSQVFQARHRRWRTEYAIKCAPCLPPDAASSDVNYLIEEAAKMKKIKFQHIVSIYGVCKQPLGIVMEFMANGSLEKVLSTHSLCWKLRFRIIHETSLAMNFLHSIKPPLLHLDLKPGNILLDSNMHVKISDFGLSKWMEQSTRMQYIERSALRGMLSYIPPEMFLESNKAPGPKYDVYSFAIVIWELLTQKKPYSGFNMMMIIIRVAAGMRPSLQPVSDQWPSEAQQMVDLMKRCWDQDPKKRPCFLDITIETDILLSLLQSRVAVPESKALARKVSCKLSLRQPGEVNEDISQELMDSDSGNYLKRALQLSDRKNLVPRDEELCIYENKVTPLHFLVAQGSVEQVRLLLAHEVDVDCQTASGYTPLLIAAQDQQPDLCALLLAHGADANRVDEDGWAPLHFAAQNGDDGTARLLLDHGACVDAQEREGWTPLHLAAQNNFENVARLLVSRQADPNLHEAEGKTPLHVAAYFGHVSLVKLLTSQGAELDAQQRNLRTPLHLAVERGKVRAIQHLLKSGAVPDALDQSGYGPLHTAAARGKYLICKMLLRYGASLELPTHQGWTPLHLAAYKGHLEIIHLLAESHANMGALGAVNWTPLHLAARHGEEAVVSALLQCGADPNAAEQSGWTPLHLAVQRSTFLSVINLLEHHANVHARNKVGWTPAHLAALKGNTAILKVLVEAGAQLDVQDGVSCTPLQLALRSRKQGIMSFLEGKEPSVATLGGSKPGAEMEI
Sequence of CLK4 (Q9HAZ1 whole entry): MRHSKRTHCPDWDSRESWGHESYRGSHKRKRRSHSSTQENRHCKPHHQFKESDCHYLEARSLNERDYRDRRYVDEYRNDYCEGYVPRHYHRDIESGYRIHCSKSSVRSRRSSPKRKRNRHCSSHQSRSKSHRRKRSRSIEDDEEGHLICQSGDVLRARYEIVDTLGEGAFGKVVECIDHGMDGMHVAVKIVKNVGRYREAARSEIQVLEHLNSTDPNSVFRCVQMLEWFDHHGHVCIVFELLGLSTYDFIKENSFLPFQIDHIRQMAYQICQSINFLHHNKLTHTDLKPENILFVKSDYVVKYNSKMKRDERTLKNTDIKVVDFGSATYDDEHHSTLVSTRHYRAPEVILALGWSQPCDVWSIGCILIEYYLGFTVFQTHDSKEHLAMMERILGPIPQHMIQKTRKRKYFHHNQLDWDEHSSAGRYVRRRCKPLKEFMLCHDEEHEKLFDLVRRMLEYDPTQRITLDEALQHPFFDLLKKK
Sequence of CAMKK1 (Q8N5S9 whole entry): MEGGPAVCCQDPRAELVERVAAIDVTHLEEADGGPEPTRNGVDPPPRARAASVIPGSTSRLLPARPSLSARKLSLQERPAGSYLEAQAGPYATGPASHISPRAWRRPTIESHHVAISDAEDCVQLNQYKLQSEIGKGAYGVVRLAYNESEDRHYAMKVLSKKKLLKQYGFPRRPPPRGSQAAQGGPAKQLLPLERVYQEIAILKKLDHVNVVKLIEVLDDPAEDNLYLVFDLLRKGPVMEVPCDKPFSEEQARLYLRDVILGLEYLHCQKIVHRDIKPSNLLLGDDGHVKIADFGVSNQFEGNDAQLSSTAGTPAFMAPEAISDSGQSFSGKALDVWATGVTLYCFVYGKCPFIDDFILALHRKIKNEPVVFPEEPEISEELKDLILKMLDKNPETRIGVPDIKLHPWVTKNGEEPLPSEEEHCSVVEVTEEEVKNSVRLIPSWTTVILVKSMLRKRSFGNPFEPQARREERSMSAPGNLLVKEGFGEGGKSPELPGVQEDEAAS

For the compound `c1ccc2c(c1)Sc1ccccc1N2CCN1CCOCC1` [J54], the remaining binding turned out to be 73% on ERK3; 100% at CLK4; 100% on PIP5K2C; 100% on MARK4; 97% on PRKD1; 31% at MAK. Moreover, the remaining binding on ACVR1B turned out to be 88%; on CAMKK1, 100%; on MAP4K4, 66%; at HCK it was 100%; at KIT(D816H), 62%; on TAOK1, 100%. Besides, the remaining binding at ANKK1 came to 100%; on SNRK, 59%; in experiment [1], 86%; at SIK2, 97%; on CDKL1, 79%; on PIM2, 42%. For the same compound, the remaining binding at ERK4 stood at 100%.
